Laboratory results taken from the supplement of paper PMC10307832.

Legend:
Assay in all cases: relative viability (nuclei count vs DMSO), 5 days (fraction); higher = more cells survive
NCI-H441 = system: NCI-H441
Method in brief: (§1)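 For relative viability, nuclei counts in treated wells were divided by those in vehicle wells. Lung cancer cell lines had been pin-tool dosed in 1536-well plates the day after seeding and cultured for 5 days, then fixed and stained in one step (final 0.05% Triton X-100, 1% formaldehyde, 1 ug/ml Hoechst) and imaged at 4×. Doses were one drug alone or a fixed anchor-drug dose plus five library-drug doses (not always all listed) in √10 steps, and values are duplicate-plate medians.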

NCI-H650 = system: NCI-H650
Method in brief: as §1

NCI-H23 = system: NCI-H23
Method in brief: as §1

RERF-LC-KJ = system: RERF-LC-KJ
Method in brief: as §1

NCI-H1355 = system: NCI-H1355
Method in brief: as §1

NCI-H2009 = system: NCI-H2009
Method in brief: as §1

LCLC-97TM1 = system: LCLC-97TM1
Method in brief: as §1

NCI-H2023 = system: NCI-H2023
Method in brief: as §1

NCI-H322M = system: NCI-H322M
Method in brief: as §1

HOP-62 = system: HOP-62
Method in brief: as §1

NCI-H1437 = system: NCI-H1437
Method in brief: as §1

NCI-H2085 = system: NCI-H2085
Method in brief: as §1

UMC-11 = system: UMC-11
Method in brief: as §1

NCI-H1755 = system: NCI-H1755
Method in brief: as §1

ChaGo-K-1 = system: ChaGo-K-1
Method in brief: as §1

LOU-NH91 = system: LOU-NH91
Method in brief: as §1

HCC-78 = system: HCC-78
Method in brief: as §1

NCI-H2405 = system: NCI-H2405
Method in brief: as §1

NCI-H2170 = system: NCI-H2170
Method in brief: as §1

SK-MES-1 = system: SK-MES-1
Method in brief: as §1

NCI-H1792 = system: NCI-H1792
Method in brief: as §1

## O=C(O)CCCCC(CCSCc1ccccc1)SCc1ccccc1 (centres undefined) [CPI-613] + Nc1nc2[nH]cc(CCc3ccc(C(=O)N[C@@H](CCC(=O)O)C(=O)O)cc3)c2c(=O)[nH]1 [Pemetrexed] (partner 0.2 µM)
NCI-H441; first compound 5 µM
  relative viability: 0.266
NCI-H441; first compound 15.81 µM
  relative viability: 0.242
NCI-H441; first compound 50 µM
  relative viability: 0.236
NCI-H441; first compound 158.11 µM
  relative viability: 0.151
NCI-H441; first compound 500 µM
  relative viability: 0.0045
NCI-H650; first compound 5 µM
  relative viability: 1.01
NCI-H650; first compound 15.81 µM
  relative viability: 0.821
NCI-H650; first compound 50 µM
  relative viability: 0.897
NCI-H650; first compound 158.11 µM
  relative viability: 0.641
NCI-H650; first compound 500 µM
  relative viability: 0.826
NCI-H23; first compound 5 µM
  relative viability: 0.673
NCI-H23; first compound 15.81 µM
  relative viability: 0.621
NCI-H23; first compound 50 µM
  relative viability: 0.544
NCI-H23; first compound 158.11 µM
  relative viability: 0.19
NCI-H23; first compound 500 µM
  relative viability: 0.0031
RERF-LC-KJ; first compound 5 µM
  relative viability: 0.476
RERF-LC-KJ; first compound 15.81 µM
  relative viability: 0.47
RERF-LC-KJ; first compound 50 µM
  relative viability: 0.461
RERF-LC-KJ; first compound 158.11 µM
  relative viability: 0.341
RERF-LC-KJ; first compound 500 µM
  relative viability: 0.312
NCI-H1355; first compound 5 µM
  relative viability: 1.02
NCI-H1355; first compound 15.81 µM
  relative viability: 0.983
NCI-H1355; first compound 50 µM
  relative viability: 1.06
NCI-H1355; first compound 158.11 µM
  relative viability: 0.754
NCI-H1355; first compound 500 µM
  relative viability: 0.457
NCI-H2009; first compound 5 µM
  relative viability: 0.985
NCI-H2009; first compound 15.81 µM
  relative viability: 1
NCI-H2009; first compound 50 µM
  relative viability: 0.947
NCI-H2009; first compound 158.11 µM
  relative viability: 0.322
NCI-H2009; first compound 500 µM
  relative viability: 0.0262
LCLC-97TM1; first compound 5 µM
  relative viability: 0.166
LCLC-97TM1; first compound 15.81 µM
  relative viability: 0.208
LCLC-97TM1; first compound 50 µM
  relative viability: 0.176
LCLC-97TM1; first compound 158.11 µM
  relative viability: 0.162
LCLC-97TM1; first compound 500 µM
  relative viability: 0.0608
NCI-H2023; first compound 5 µM
  relative viability: 0.233
NCI-H2023; first compound 15.81 µM
  relative viability: 0.2
NCI-H2023; first compound 50 µM
  relative viability: 0.175
NCI-H2023; first compound 158.11 µM
  relative viability: 0.0911
NCI-H2023; first compound 500 µM
  relative viability: 0.0103
NCI-H322M; first compound 5 µM
  relative viability: 0.617
NCI-H322M; first compound 15.81 µM
  relative viability: 0.58
NCI-H322M; first compound 50 µM
  relative viability: 0.616
NCI-H322M; first compound 158.11 µM
  relative viability: 0.637
NCI-H322M; first compound 500 µM
  relative viability: 0.441
HOP-62; first compound 5 µM
  relative viability: 0.321
HOP-62; first compound 15.81 µM
  relative viability: 0.309
HOP-62; first compound 50 µM
  relative viability: 0.272
HOP-62; first compound 158.11 µM
  relative viability: 0.163
HOP-62; first compound 500 µM
  relative viability: 0.12
NCI-H1437; first compound 5 µM
  relative viability: 0.328
NCI-H1437; first compound 15.81 µM
  relative viability: 0.295
NCI-H1437; first compound 50 µM
  relative viability: 0.301
NCI-H1437; first compound 158.11 µM
  relative viability: 0.0937
NCI-H1437; first compound 500 µM
  relative viability: 0.0871
NCI-H2085; first compound 5 µM
  relative viability: 0.827
NCI-H2085; first compound 15.81 µM
  relative viability: 0.672
NCI-H2085; first compound 50 µM
  relative viability: 0.82
NCI-H2085; first compound 158.11 µM
  relative viability: 0.492
NCI-H2085; first compound 500 µM
  relative viability: 0.18
UMC-11; first compound 5 µM
  relative viability: 0.703
UMC-11; first compound 15.81 µM
  relative viability: 0.8
UMC-11; first compound 50 µM
  relative viability: 0.758
UMC-11; first compound 158.11 µM
  relative viability: 0.36
UMC-11; first compound 500 µM
  relative viability: 0.115
NCI-H1755; first compound 5 µM
  relative viability: 0.436
NCI-H1755; first compound 15.81 µM
  relative viability: 0.57
NCI-H1755; first compound 50 µM
  relative viability: 0.371
NCI-H1755; first compound 158.11 µM
  relative viability: 0.396
NCI-H1755; first compound 500 µM
  relative viability: 0.372
ChaGo-K-1; first compound 5 µM
  relative viability: 0.269
ChaGo-K-1; first compound 15.81 µM
  relative viability: 0.261
ChaGo-K-1; first compound 50 µM
  relative viability: 0.264
ChaGo-K-1; first compound 158.11 µM
  relative viability: 0.248
ChaGo-K-1; first compound 500 µM
  relative viability: 0.187
LOU-NH91; first compound 5 µM
  relative viability: 0.389
LOU-NH91; first compound 15.81 µM
  relative viability: 0.332
LOU-NH91; first compound 50 µM
  relative viability: 0.367
LOU-NH91; first compound 158.11 µM
  relative viability: 0.399
LOU-NH91; first compound 500 µM
  relative viability: 0.233
HCC-78; first compound 15.81 µM
  relative viability: 0.898
HCC-78; first compound 50 µM
  relative viability: 0.906
HCC-78; first compound 158.11 µM
  relative viability: 0.874
HCC-78; first compound 500 µM
  relative viability: 0.913
NCI-H2405; first compound 5 µM
  relative viability: 1.04
NCI-H2405; first compound 15.81 µM
  relative viability: 0.922
NCI-H2405; first compound 50 µM
  relative viability: 0.968
NCI-H2405; first compound 158.11 µM
  relative viability: 0.63
NCI-H2405; first compound 500 µM
  relative viability: 0.336
NCI-H2170; first compound 5 µM
  relative viability: 0.278
NCI-H2170; first compound 15.81 µM
  relative viability: 0.251
NCI-H2170; first compound 50 µM
  relative viability: 0.244
NCI-H2170; first compound 158.11 µM
  relative viability: 0.26
NCI-H2170; first compound 500 µM
  relative viability: 0.227
SK-MES-1; first compound 5 µM
  relative viability: 0.975
SK-MES-1; first compound 15.81 µM
  relative viability: 0.807
SK-MES-1; first compound 50 µM
  relative viability: 0.737
SK-MES-1; first compound 158.11 µM
  relative viability: 0.17
SK-MES-1; first compound 500 µM
  relative viability: 0.104
NCI-H1792; first compound 5 µM
  relative viability: 0.744
NCI-H1792; first compound 15.81 µM
  relative viability: 0.63
NCI-H1792; first compound 50 µM
  relative viability: 0.636
NCI-H1792; first compound 158.11 µM
  relative viability: 0.109
NCI-H1792; first compound 500 µM
  relative viability: 0.0742
